Measured values: patent publication US7074789B2, “Kinase inhibitors” (Amgen Inc., priority 1999, dated 2006)
Where “and” joins values, the source holds several entries; their conditions need not be identical. Identical values can stand only once.

What was measured:
Format in all cases: biochemical
IGFR-1 = target: T1, IGFR-1 (Homo sapiens, UniProt P08069); experiment: Kinase inhibition assay (33P transfer), IGFR-1; conditions: Table 2, kinase inhibition class
T1 construct: Kinases are expressed as either kinase domains or full length constructs; made in house

AKT = target: T2, AKT (Homo sapiens, UniProt Q9Y243); experiment: Kinase inhibition assay (33P transfer), AKT; conditions: Table 2, kinase inhibition class; read-out: AKT3-1
T2 construct: Kinases are expressed as either kinase domains or full length constructs; made in house
T2 sequence (Q9Y243 whole entry, the tested form may be a part): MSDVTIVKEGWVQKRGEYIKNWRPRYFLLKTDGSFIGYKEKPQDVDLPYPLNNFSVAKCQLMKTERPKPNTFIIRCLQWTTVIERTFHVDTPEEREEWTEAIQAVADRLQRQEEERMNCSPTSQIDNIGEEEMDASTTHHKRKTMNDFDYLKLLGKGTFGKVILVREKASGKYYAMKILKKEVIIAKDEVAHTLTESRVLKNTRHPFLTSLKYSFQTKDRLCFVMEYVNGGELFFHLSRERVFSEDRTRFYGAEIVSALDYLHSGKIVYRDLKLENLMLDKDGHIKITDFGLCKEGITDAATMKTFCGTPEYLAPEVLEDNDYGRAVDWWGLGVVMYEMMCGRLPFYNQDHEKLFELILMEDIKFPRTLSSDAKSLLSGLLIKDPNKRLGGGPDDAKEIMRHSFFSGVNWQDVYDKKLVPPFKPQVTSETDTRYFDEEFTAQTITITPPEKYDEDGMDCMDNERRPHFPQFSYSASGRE
Summary of the method: (§1)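 Enzyme activity is taken as the amount of 33PO4 moved from ATP onto poly(Glu, Tyr) 4:1 or poly(Arg, Ser) 3:1 fixed to the plate surface. Unbound label is removed with 0.5% phosphoric acid before scintillation counting.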

Kdr = target: T3, Kdr (Homo sapiens, UniProt P35968); experiment: Kinase inhibition assay (33P transfer), Kdr; conditions: Table 3; read-out: KDR-1
T3 construct: Kinases are expressed as either kinase domains or full length constructs; made in house
T3 sequence (P35968 20-1356, species assumed): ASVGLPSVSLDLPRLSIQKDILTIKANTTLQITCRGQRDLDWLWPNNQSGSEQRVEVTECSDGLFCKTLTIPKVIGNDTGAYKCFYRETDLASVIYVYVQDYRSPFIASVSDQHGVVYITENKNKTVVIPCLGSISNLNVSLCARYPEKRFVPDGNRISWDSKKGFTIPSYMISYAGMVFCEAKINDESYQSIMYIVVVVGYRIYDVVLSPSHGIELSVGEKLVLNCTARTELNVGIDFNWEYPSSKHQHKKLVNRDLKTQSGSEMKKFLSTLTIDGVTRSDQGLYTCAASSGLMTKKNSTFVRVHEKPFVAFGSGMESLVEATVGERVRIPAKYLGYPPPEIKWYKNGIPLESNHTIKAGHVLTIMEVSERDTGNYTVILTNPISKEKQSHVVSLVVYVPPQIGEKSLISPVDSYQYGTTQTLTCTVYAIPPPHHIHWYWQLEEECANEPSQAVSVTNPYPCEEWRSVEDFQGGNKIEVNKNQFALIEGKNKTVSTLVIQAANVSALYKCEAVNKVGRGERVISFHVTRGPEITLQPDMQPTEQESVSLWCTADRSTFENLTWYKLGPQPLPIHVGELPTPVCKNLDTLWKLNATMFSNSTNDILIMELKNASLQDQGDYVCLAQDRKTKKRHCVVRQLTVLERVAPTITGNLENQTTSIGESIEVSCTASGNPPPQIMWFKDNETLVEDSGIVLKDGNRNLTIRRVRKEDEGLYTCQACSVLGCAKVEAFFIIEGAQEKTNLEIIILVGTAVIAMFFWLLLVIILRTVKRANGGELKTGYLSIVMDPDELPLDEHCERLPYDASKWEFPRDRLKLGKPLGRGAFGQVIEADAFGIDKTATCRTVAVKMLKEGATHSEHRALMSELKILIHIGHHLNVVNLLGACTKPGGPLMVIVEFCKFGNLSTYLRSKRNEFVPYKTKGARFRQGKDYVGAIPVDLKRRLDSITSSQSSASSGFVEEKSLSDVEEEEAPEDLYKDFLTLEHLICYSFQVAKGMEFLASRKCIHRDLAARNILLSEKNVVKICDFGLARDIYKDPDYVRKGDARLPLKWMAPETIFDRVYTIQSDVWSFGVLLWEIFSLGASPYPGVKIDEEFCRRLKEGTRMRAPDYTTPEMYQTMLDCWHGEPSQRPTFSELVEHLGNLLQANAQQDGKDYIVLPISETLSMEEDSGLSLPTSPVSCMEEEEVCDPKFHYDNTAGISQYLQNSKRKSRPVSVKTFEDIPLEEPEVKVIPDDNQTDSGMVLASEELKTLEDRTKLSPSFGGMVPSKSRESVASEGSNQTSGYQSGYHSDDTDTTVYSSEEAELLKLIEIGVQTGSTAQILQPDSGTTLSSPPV
Summary of the method: as §1

c-Met = target: T4, c-Met (Homo sapiens, UniProt P08581); experiment: Kinase inhibition assay (33P transfer), c-Met; conditions: Table 2, kinase inhibition class; read-out: Met-1
T4 construct: Kinases are expressed as either kinase domains or full length constructs; made in house
T4 sequence (P08581 25-1390): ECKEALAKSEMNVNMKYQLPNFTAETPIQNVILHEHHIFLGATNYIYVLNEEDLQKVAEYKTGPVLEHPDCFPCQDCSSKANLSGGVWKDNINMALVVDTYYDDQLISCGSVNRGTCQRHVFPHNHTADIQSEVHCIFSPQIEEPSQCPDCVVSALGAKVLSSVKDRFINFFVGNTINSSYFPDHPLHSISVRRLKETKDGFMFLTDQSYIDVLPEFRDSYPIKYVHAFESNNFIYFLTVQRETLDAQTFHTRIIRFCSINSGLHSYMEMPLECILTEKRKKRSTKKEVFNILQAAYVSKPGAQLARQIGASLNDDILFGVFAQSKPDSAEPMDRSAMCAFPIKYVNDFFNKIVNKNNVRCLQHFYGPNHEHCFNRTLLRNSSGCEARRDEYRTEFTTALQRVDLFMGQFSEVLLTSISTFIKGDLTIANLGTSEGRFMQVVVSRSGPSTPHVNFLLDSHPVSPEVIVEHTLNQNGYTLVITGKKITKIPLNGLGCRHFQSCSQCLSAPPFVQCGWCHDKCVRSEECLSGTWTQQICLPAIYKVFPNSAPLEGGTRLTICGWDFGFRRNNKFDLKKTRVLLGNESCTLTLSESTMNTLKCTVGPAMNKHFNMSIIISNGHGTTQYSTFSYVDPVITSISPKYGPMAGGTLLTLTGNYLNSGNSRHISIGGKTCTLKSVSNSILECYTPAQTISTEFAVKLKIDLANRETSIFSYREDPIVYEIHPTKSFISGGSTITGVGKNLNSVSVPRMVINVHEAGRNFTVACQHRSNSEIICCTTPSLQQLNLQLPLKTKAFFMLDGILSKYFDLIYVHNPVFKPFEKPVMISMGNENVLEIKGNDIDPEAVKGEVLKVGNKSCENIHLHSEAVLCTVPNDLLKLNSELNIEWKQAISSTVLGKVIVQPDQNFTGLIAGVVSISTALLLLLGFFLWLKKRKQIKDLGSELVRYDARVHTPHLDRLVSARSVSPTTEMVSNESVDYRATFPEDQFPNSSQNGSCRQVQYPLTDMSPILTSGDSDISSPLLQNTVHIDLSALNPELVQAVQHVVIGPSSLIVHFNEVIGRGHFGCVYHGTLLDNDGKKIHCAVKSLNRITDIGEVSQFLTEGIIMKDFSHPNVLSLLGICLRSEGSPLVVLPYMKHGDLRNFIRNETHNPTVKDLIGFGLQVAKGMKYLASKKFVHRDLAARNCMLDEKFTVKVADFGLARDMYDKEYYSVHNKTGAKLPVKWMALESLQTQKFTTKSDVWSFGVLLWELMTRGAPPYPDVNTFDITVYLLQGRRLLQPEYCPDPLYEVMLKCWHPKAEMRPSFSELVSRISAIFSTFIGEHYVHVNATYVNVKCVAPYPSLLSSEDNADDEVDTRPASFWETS
Summary of the method: (§2)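 GST/His-fusion kinases, E. coli or High Five expressed, affinity purified; 33P-ATP, plate-coated poly(Glu,Tyr) 4:1 or poly(Arg,Ser) 3:1; 0.5% H3PO4 wash, scintillant, LSC.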

Lck = target: T5, Lck (Homo sapiens, UniProt P06239); experiment: Kinase inhibition assay (33P transfer), Lck; conditions: Table 3; read-out: Lck-1
T5 construct: Kinases are expressed as either kinase domains or full length constructs; made in house
T5 sequence (P06239 whole entry, species assumed, the tested form may be a part): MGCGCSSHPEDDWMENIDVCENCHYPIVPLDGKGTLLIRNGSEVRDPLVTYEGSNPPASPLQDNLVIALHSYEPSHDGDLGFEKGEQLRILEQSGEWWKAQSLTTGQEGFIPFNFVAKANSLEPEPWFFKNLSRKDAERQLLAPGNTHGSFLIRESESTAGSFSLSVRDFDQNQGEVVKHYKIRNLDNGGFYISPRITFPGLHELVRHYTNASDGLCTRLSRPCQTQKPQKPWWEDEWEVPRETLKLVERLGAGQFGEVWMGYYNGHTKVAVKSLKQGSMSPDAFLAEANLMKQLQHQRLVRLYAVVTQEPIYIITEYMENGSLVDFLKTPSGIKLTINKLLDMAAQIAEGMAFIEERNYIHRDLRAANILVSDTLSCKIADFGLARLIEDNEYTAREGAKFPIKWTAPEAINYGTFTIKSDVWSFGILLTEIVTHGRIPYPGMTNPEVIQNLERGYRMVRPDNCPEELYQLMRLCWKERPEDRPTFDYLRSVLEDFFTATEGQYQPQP
Summary of the method: as §1

Zap-70 = target: T6, Zap-70 (Homo sapiens, UniProt P43403); experiment: Kinase inhibition assay (33P transfer), Zap-70; conditions: Table 3; read-out: Zap-1
T6 construct: Kinases are expressed as either kinase domains or full length constructs; made in house
T6 sequence (P43403 1-619): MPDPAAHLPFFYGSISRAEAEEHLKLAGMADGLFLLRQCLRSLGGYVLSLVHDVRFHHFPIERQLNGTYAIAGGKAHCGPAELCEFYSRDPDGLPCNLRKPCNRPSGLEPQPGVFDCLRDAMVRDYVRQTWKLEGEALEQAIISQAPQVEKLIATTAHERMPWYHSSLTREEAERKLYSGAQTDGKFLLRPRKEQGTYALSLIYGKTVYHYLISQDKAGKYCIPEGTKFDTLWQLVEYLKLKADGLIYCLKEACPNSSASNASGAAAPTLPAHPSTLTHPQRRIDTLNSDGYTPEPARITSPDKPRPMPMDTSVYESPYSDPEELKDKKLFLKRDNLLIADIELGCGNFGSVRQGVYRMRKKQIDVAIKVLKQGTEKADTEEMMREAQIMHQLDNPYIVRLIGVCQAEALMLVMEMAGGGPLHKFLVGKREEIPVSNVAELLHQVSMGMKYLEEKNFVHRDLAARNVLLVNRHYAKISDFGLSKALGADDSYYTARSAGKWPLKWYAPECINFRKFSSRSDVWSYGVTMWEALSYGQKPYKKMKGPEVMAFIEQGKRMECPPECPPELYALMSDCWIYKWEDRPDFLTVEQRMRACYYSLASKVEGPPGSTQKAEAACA
Summary of the method: as §1

Itk = target: T7, Itk (Homo sapiens, UniProt Q08881); experiment: Kinase inhibition assay (33P transfer), Itk; conditions: Table 3; read-out: Itk-1
T7 construct: Kinases are expressed as either kinase domains or full length constructs; made in house
T7 sequence (Q08881 1-620): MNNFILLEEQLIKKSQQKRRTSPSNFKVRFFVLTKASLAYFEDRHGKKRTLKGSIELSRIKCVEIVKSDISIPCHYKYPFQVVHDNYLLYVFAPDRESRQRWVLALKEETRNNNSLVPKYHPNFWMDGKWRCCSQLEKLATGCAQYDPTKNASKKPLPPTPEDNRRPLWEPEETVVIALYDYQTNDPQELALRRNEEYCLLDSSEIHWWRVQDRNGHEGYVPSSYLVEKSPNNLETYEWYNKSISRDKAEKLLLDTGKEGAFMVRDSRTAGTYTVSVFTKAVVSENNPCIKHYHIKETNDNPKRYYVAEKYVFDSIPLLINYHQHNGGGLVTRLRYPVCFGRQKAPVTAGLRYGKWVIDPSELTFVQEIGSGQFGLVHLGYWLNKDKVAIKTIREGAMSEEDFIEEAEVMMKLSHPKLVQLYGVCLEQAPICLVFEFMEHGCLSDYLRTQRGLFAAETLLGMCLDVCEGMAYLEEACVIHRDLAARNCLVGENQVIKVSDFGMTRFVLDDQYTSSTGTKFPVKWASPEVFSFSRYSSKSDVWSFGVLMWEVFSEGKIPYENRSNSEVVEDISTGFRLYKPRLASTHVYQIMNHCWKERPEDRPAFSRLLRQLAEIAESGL
Summary of the method: as §2

EGFR = target: T8, EGFR (Homo sapiens, UniProt P00533); experiment: Kinase inhibition assay (33P transfer), EGFR; conditions: Table 2, kinase inhibition class; read-out: EGFR-1
T8 construct: Kinases are expressed as either kinase domains or full length constructs; made in house
T8 sequence (P00533 25-1210, species assumed): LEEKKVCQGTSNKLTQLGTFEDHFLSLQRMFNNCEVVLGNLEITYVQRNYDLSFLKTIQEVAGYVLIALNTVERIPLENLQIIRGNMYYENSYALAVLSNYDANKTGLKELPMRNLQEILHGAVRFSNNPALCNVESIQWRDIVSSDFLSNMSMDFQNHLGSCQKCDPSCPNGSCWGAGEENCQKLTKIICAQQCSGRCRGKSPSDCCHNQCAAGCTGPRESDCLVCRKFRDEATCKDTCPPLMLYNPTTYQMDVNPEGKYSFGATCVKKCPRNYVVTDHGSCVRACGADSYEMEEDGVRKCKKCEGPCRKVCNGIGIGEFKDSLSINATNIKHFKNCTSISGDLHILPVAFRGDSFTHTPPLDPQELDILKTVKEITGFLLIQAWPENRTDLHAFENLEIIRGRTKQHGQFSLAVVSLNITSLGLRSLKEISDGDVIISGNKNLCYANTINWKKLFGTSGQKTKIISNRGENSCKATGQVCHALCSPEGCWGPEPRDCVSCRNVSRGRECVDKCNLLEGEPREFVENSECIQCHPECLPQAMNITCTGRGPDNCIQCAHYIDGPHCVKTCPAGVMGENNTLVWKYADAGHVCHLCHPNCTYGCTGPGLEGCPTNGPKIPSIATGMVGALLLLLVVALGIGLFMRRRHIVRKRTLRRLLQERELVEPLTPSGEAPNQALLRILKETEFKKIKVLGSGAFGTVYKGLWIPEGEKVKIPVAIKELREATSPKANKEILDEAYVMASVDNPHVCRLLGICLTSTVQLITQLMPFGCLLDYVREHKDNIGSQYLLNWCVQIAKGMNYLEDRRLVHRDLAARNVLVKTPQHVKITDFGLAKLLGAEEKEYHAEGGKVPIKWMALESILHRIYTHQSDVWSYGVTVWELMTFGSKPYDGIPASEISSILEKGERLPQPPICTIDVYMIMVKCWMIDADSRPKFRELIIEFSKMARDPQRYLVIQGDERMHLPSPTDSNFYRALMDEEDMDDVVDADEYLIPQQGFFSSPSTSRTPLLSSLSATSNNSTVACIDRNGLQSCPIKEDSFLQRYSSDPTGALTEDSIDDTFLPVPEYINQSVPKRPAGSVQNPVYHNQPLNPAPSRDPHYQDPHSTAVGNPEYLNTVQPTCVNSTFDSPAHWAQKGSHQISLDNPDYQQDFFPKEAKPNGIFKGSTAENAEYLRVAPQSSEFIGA
Summary of the method: as §2

Structure (SMILES)	IC50 (IGFR-1) [µM]	IC50 (AKT) [µM]	IC50 (Kdr)	IC50 (c-Met) [µM]	IC50 (Lck)	IC50 (Zap-70) [µM]	IC50 (Itk) [µM]	IC50 (EGFR)
NC(=O)c1cccc(Nc2ncnc(-c3cccs3)n2)c1 [Compound 358]	> 15.1	> 15.1	> 15.1 µM	> 15.1	> 15.1 µM	> 15.1	> 15.1	> 15.1 µM
COc1cc(Nc2ncnc(Nc3cc(C)nn3C)n2)cc(OC)c1OC [Compound 393]	> 12.1	> 12.1	> 12.1 µM and 6.46 to 9.42 µM	> 12.1	1.08 to 6.46 µM and > 12.1 µM	> 12.1	> 12.1	9.42 to 12.1 µM and > 12.1 µM
COc1ccc2c(c1)c(CCN(C)C)cn2-c1ncnc(Nc2cc(OC)c(OC)c(OC)c2)n1 [Compound 333]	> 9.4	> 9.4	> 9.4 µM	> 9.4	> 9.4 µM	> 9.4	> 9.4	> 9.4 µM
COc1cc(Nc2ncnc(-c3ccnc(N4CCCCC4)c3)n2)cc(OC)c1OC [Compound 345]	0.947 to 5.68	> 10.7	< 0.947 µM	0.947 to 5.68	0.947 to 5.68 µM	> 10.7	> 10.7	> 10.7 µM
c1csc(-c2ncnc(Nc3ccncc3)n2)c1 [Compound 363]	> 17.6	> 17.6	> 17.6 µM	> 17.6	> 17.6 µM	> 17.6	> 17.6	> 17.6 µM
COc1cc(Nc2ncnc(Cl)n2)cc(OC)c1OC [Compound 924, 2-chloro-4-(3′,4′,5′-trimethoxyanilino)-1,3,5-triazine]	> 15.2	> 15.2	1.35 to 8.09 µM	> 15.2	> 15.2 µM	> 15.2	> 15.2	> 15.2 µM
c1csc(-c2ncnc(Nc3ccc4c(c3)OCO4)n2)c1 [Compound 1072]	> 15.1	> 15.1	8.04 to 11.7 µM	11.7 to 15.1	> 15.1 µM	> 15.1	> 15.1	> 15.1 µM
COc1cc(C)c(Nc2ncnc(-c3cccs3)n2)cc1OC [Compound 359]	> 13.7	> 13.7	> 13.7 µM	> 13.7	> 13.7 µM	> 13.7	> 13.7	> 13.7 µM
NC(=O)c1ccc(Nc2ncnc(-c3ccccc3)n2)cc1 [Compound 1028]	> 15.4	> 15.4	> 15.4 µM	> 15.4	> 15.4 µM	> 15.4	> 15.4	> 15.4 µM
c1csc(-c2ncnc(Nc3ccc(N4CCOCC4)cc3)n2)c1 [Compound 349]	> 13.3	10.3 to 13.3	10.3 to 13.3 µM	10.3 to 13.3	1.18 to 7.07 µM	> 13.3	> 13.3	> 13.3 µM
OCc1ccc(Nc2ncnc(-c3ccccc3)n2)cc1 [Compound 165]	> 16.2	> 16.2	> 16.2 µM	> 16.2	> 16.2 µM	> 16.2	> 16.2	> 16.2 µM
FC(F)C(F)(F)Oc1cccc(Nc2ncnc(-c3cccs3)n2)c1 [Compound 350]	> 12.2	> 12.2	> 12.2 µM	> 12.2	> 12.2 µM	> 12.2	> 12.2	> 12.2 µM
